Reference: patent publication US4159373A, “7-Acyl-3-(sulfonic acid and sulfamoyl substituted tetrazolyl thiomethyl) cephalosporins” (SmithKline Corporation, priority 1978, dated 1979)
In brackets after ≈: the same amount, converted by molar mass. Read-outs that look alike come from different tables or passages of the source.

How the values were obtained:
E. coli HH 33779 = experiment: MIC in vitro; type: cell-based; details: Escherichia coli, HH33779, Table 1; E. coli HH 33779; read-out: MIC in vitro
Method: (§1) The compounds of Formula I have exceptional antibacterial activity against both Gram-positive and Gram-negative organisms. Minimum inhibitory concentrations (MIC's) ranged from 0.2 to <200 μg./ml. in in vitro testing.

E. coli SK 12140 = experiment: MIC in vitro; type: cell-based
Method: as §1

Proteus morgani 179 = experiment: MIC in vitro; type: cell-based
Method: as §1

S. aureus HH 127 = experiment: MIC in vitro; type: cell-based; details: Staphylococcus aureus
Method: as §1

S. aureus SK 23390 = experiment: MIC in vitro; type: cell-based; details: Staphylococcus aureus, SK23390, Table 1; S. aureus SK 23390; read-out: MIC in vitro
Method: as §1

Salmonella ATCC 12176 = experiment: MIC in vitro; type: cell-based; details: Salmonella, ATCC12176, Table 1, read-out: MIC in vitro
Method: as §1

Strep. Faecalis HH 34358 = experiment: MIC in vitro; type: cell-based; details: Enterococcus faecalis
Method: as §1

Kleb. pneumo. SK 1200 = experiment: MIC in vitro; type: cell-based, Kleb. pneumoniae; details: Klebsiella pneumoniae
Method: as §1

Kleb. pneumo. SK 4200 = experiment: MIC in vitro; type: cell-based, Kleb. pneumoniae; details: Klebsiella pneumoniae
Method: as §1

Psuedo. sp. HH 63 = experiment: MIC in vitro; type: cell-based, Pseudo. aeruginosa
Method: as §1

[1] = system: Entero. aerog. ATCC 13048; experiment: MIC in vitro; type: cell-based, Enterobacter aerogenes; details: Klebsiella aerogenes
Method: as §1

Serra. marc ATCC 13880 = experiment: MIC in vitro; type: cell-based, Serratia marcescens; details: Serratia marcescens
Method: as §1

Staph. aureus 671 = experiment: MIC in vitro; type: cell-based
Staph. aureus 674 = experiment: MIC in vitro; type: cell-based
E. coli 804 = experiment: MIC in vitro; type: cell-based
Kleb. pneumoniae 982 = experiment: MIC in vitro; type: cell-based
Pseudo. aeruginosa 647 = experiment: MIC in vitro; type: cell-based
Proteus mirabilis 444 = experiment: MIC in vitro; type: cell-based
Enterobacter cloacae 921 = experiment: MIC in vitro; type: cell-based
E. coli 12140 = experiment: In vivo mouse protection, E. coli 12140; details: Escherichia coli, 12140, sc, s.c.
Kleb. pneumo. 4200 = experiment: In vivo mouse protection, Kleb. pneumo. 4200; details: sc
[2] = Escherichia coli, SK12140, Example 54 table, E. coli SK&F 12140, read-out: MIC
[3] = Example 54 table, read-out: MIC
[4] = Example 54 table, Strep. faecalis HH 34358, read-out: MIC
[5] = Example 54 table, Kleb. pneumoniae SK&F 1200, read-out: MIC
[6] = Example 54 table, Kleb. pneumoniae SK&F 4200, read-out: MIC
[7] = Pseudomonas aeruginosa, Example 54 table, Pseudo. aeruginosa HH 63, read-out: MIC
[8] = ATCC13048, Example 54 table, Enterobacter aerogenes 13048, read-out: MIC
[9] = ATCC13880, Example 54 table, Serratia marcescens ATCC 13880, read-out: MIC
[10] = Staphylococcus aureus, Example 54 table
[11] = Staphylococcus aureus, 674, Example 54 table
[12] = Escherichia coli, Example 54 table, read-out: MIC
[13] = Klebsiella pneumoniae, Example 54 table, read-out: MIC
[14] = Pseudomonas aeruginosa, Example 54 table, read-out: MIC
[15] = Enterobacter cloacae, 921, Example 54 table
[16] = Example 54, E. coli SKF 12140, read-out: ED50
[17] = Example 54, s.c., K. pneumo. SKF 4200, read-out: ED50

Cc1nnc(SCC2=C(C(=O)O)N3C(=O)[C@@H](NC(=O)Cn4cnnn4)[C@H]3SC2)s1 [XIII, Cefazolin, reference compound]
MIC (E. coli HH 33779): 0.8 µg/mL (≈ 1.76 µM)
MIC (E. coli SK 12140; [2]): 0.8 µg/mL (≈ 1.76 µM)
MIC (E. coli SK 12140; Escherichia coli, SK12140, Table 1, E. coli SK 12140, read-out: MIC in vitro): 0.8 µg/mL (≈ 1.76 µM)
MIC (E. coli SK 12140; Example 55 table, E. coli SK&F 12140): 0.8 µg/mL (≈ 1.76 µM)
MIC (Proteus morgani 179; [3]): > 100 µg/mL
MIC (Proteus morgani 179; Example 55 table, read-out: MIC): > 100 µg/mL
MIC (Proteus morgani 179; Table 1, read-out: MIC in vitro): 200 µg/mL (≈ 440 µM)
MIC (S. aureus HH 127; HH127, Example 54 table, Staph. aureus HH 127): 0.8 µg/mL (≈ 1.76 µM)
MIC (S. aureus HH 127; HH127, Table 1, S. aureus HH 127, read-out: MIC in vitro): 0.4 µg/mL (≈ 0.88 µM)
MIC (S. aureus HH 127; Example 55 table, Staph. aureus HH127, read-out: MIC): 0.4 µg/mL (≈ 0.88 µM)
MIC (S. aureus SK 23390): 0.2 µg/mL (≈ 0.44 µM)
MIC (Salmonella ATCC 12176): 0.8 µg/mL (≈ 1.76 µM)
MIC (Strep. Faecalis HH 34358; [4]): 25 µg/mL (≈ 55 µM)
MIC (Strep. Faecalis HH 34358; Example 55 table, Strep. faecalis HH 34358, read-out: MIC): 12.5 µg/mL (≈ 27.5 µM)
MIC (Strep. Faecalis HH 34358; Table 1, Strep. Faecalis HH 34358, read-out: MIC in vitro): 6.3 µg/mL (≈ 13.9 µM)
MIC (Kleb. pneumo. SK 1200; [5]): 0.4 µg/mL (≈ 0.88 µM)
MIC (Kleb. pneumo. SK 1200; Example 55 table, Kleb. pneumoniae SK&F 1200, read-out: MIC): 0.8 µg/mL (≈ 1.76 µM)
MIC (Kleb. pneumo. SK 1200; Table 1, Kleb. pneumo. SK 1200, read-out: MIC in vitro): 0.8 µg/mL (≈ 1.76 µM)
MIC (Kleb. pneumo. SK 4200; [6]): 3.1 µg/mL (≈ 6.82 µM)
MIC (Kleb. pneumo. SK 4200; Example 55 table, Kleb. pneumoniae SK&F 4200, read-out: MIC): 1.6 µg/mL (≈ 3.52 µM)
MIC (Kleb. pneumo. SK 4200; Table 1, Kleb. pneumo. SK 4200, read-out: MIC in vitro): 0.8 µg/mL (≈ 1.76 µM)
MIC (Psuedo. sp. HH 63; Example 55 table, Pseudo. aeruginosa HH63): > 100 µg/mL
MIC (Psuedo. sp. HH 63; [7]): > 100 µg/mL
MIC (Psuedo. sp. HH 63; Pseudomonas aeruginosa, Table 1, Psuedo. sp. HH 63, read-out: MIC in vitro): > 200 µg/mL
MIC [1, 8]: 3.1 µg/mL (≈ 6.82 µM)
MIC ([1]; ATCC13048, Example 55 table, Enterobacter aerogenes 13048, read-out: MIC): 3.1 µg/mL (≈ 6.82 µM)
MIC ([1]; ATCC13048, Table 1, Entero. aerog. ATCC 13048, read-out: MIC in vitro): 1.6 µg/mL (≈ 3.52 µM)
MIC (Serra. marc ATCC 13880; [9]): > 100 µg/mL
MIC (Serra. marc ATCC 13880; ATCC13880, Example 55 table, Serratia marcescens ATCC 13880, read-out: MIC): > 100 µg/mL
MIC (Serra. marc ATCC 13880; ATCC13880, Table 1, Serra. marc ATCC 13880, read-out: MIC in vitro): 200 µg/mL (≈ 440 µM)
MIC (Staph. aureus 671; Staphylococcus aureus, 671, Example 55 table): 12.5 µg/mL (≈ 27.5 µM)
MIC (Staph. aureus 671; [10]): 0.8 µg/mL (≈ 1.76 µM)
MIC (Staph. aureus 674; [11]): 0.4 µg/mL (≈ 0.88 µM)
MIC (Staph. aureus 674; Staphylococcus aureus, 674, Example 55 table): 0.2 µg/mL (≈ 0.44 µM)
MIC (E. coli 804; [12]): 100 µg/mL (≈ 220 µM)
MIC (E. coli 804; Example 55 table): 100 µg/mL (≈ 220 µM)
MIC (Kleb. pneumoniae 982; Example 55 table): > 100 µg/mL
MIC (Kleb. pneumoniae 982; [13]): > 100 µg/mL
MIC (Pseudo. aeruginosa 647; Example 55 table): > 100 µg/mL
MIC (Pseudo. aeruginosa 647; [14]): > 100 µg/mL
MIC (Proteus mirabilis 444; [3]): 3.1 µg/mL (≈ 6.82 µM)
MIC (Proteus mirabilis 444; Example 55 table): 3.1 µg/mL (≈ 6.82 µM)
MIC (Enterobacter cloacae 921; [15]): 25 µg/mL (≈ 55 µM)
MIC (Enterobacter cloacae 921; Enterobacter cloacae, 921, Example 55 table): 6.3 µg/mL (≈ 13.9 µM)
ED50 (E. coli 12140; [16]): 4.4 mg/kg
ED50 (E. coli 12140; Example 55, E. coli SKF 12140, read-out: ED50): 3.12 mg/kg
ED50 (E. coli 12140; Table 2, E. coli 12140, read-out: ED50 in vivo): 4 mg/kg
ED50 (Kleb. pneumo. 4200; [17]): 0.7 mg/kg
ED50 (Kleb. pneumo. 4200; Example 55, s.c., K. pneumo. SK&F 4200, read-out: ED50): 8.7 mg/kg
ED50 (Kleb. pneumo. 4200; Table 2, Kleb. pneumo. 4200, s.c., read-out: ED50 in vivo): 6.25 mg/kg

NCc1ccc(CC(=O)NC2C(=O)N3C(C(=O)O)=C(CSc4nnnn4CS(=O)(=O)O)CSC23)cc1 (centres unmarked) [Example 54, 7-(4-Aminomethylphenylacetamido)-3-(1-sulfomethyltetrazol-5-ylthiomethyl)-3-cephem-4-carboxylic acid]
MIC (E. coli SK 12140; [2]): 6.3 µg/mL (≈ 11.3 µM)
MIC (Proteus morgani 179; [3]): > 100 µg/mL
MIC (S. aureus HH 127; HH127, Example 54 table, Staph. aureus HH 127, read-out: MIC): 6.3 µg/mL (≈ 11.3 µM)
MIC (Strep. Faecalis HH 34358; [4]): 100 µg/mL (≈ 180 µM)
MIC (Kleb. pneumo. SK 1200; [5]): 0.4 µg/mL (≈ 0.72 µM)
MIC (Kleb. pneumo. SK 4200; [6]): 0.4 µg/mL (≈ 0.72 µM)
MIC (Psuedo. sp. HH 63; [7]): > 100 µg/mL
MIC [1, 8]: > 100 µg/mL
MIC (Serra. marc ATCC 13880; [9]): > 100 µg/mL
MIC (Staph. aureus 671; [10]): 3.1 µg/mL (≈ 5.58 µM)
MIC (Staph. aureus 674; [11]): 3.1 µg/mL (≈ 5.58 µM)
MIC (E. coli 804; [12]): > 100 µg/mL
MIC (Kleb. pneumoniae 982; [13]): > 100 µg/mL
MIC (Pseudo. aeruginosa 647; [14]): > 100 µg/mL
MIC (Proteus mirabilis 444; [3]): 1.6 µg/mL (≈ 2.88 µM)
MIC (Enterobacter cloacae 921; [15]): 100 µg/mL (≈ 180 µM)
ED50 (E. coli 12140; [16]): 8.7 mg/kg
ED50 (Kleb. pneumo. 4200; [17]): 0.7 mg/kg
